Results: patent US9821173B2, “Anti-cancer agents and methods of use” (Case Western Reserve University, priority 2013, dated 2017)

Key:
Test in all cases: Kinase inhibition screening (Luceome)
Format in all cases: biochemical
Conditions in all cases: 10 μM
PKC-ε = biological target: T1, PKC-ε (Homo sapiens, UniProt Q02156)
T1 construct: purchased Luceome Biotechnologies (Tucson, Ariz.)
From the text: (§1) It is well established that dysfunctional and unregulated kinase activity plays significant roles in cancer initiation and progression. […] Inspection of the data provides several interesting observations. […] These inhibitory effects at this concentration are consistent with their measured IC50 values that are also in the μM range (Table 1). In addition, several kinases display overlapping inhibitory responses to both gold(I) compounds. Many of these are of particular interest since they are involved in cancer initiation and/or progression. For example, the Aurora kinase family members, Aurora A and Aurora B, as well as the MARK2 and MARK3 kinases function during mitosis to regulate cell division. These kinases are important therapeutic targets as their activities are often deregulated in many types of cancers. Other kinases such as RPS6KA3 and MLK3 are involved in the MAP kinase and JNK pathways which are also important in cancer progression.

CAMKK2 = biological target: T2, CAMKK2 (Homo sapiens, UniProt Q96RR4)
T2 construct: purchased Luceome Biotechnologies (Tucson, Ariz.)
From the text: as §1

MET = biological target: T3, MET (Homo sapiens, UniProt P08581)
T3 construct: purchased Luceome Biotechnologies (Tucson, Ariz.)
From the text: as §1

MLK3 = biological target: T4, MLK3 (Homo sapiens, UniProt Q16584)
T4 construct: purchased Luceome Biotechnologies (Tucson, Ariz.)
From the text: as §1

SNF1LK2 = biological target: T5, SNF1LK2 (Homo sapiens, UniProt Q9H0K1)
T5 construct: purchased Luceome Biotechnologies (Tucson, Ariz.)
From the text: as §1

CAMK1D = biological target: T6, CAMK1D (Homo sapiens, UniProt Q8IU85)
T6 construct: purchased Luceome Biotechnologies (Tucson, Ariz.)
From the text: as §1

CLK1 = biological target: T7, CLK1 (Homo sapiens, UniProt P49759)
T7 construct: purchased Luceome Biotechnologies (Tucson, Ariz.)
From the text: as §1

AKT1 = biological target: T8, AKT1 (Homo sapiens, UniProt P31749)
T8 construct: purchased Luceome Biotechnologies (Tucson, Ariz.)
From the text: as §1

AURKA = biological target: T9, AURKA (Homo sapiens, UniProt O14965)
T9 construct: purchased Luceome Biotechnologies (Tucson, Ariz.)
T9 sequence (O14965 whole entry): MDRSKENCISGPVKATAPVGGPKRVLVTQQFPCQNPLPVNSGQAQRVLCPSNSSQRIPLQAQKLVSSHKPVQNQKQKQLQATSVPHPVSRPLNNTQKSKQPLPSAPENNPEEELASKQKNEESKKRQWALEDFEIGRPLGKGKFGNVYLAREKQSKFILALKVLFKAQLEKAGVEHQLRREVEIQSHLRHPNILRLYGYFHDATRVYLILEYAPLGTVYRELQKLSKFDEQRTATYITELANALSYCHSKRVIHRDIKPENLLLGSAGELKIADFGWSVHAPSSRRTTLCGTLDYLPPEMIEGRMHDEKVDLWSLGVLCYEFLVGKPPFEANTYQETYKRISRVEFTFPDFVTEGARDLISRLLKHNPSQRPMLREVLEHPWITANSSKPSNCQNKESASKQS
From the text: as §1

PDK1 = biological target: T10, PDK1 (Homo sapiens, UniProt O15530)
T10 construct: purchased Luceome Biotechnologies (Tucson, Ariz.)
T10 sequence (O15530 whole entry): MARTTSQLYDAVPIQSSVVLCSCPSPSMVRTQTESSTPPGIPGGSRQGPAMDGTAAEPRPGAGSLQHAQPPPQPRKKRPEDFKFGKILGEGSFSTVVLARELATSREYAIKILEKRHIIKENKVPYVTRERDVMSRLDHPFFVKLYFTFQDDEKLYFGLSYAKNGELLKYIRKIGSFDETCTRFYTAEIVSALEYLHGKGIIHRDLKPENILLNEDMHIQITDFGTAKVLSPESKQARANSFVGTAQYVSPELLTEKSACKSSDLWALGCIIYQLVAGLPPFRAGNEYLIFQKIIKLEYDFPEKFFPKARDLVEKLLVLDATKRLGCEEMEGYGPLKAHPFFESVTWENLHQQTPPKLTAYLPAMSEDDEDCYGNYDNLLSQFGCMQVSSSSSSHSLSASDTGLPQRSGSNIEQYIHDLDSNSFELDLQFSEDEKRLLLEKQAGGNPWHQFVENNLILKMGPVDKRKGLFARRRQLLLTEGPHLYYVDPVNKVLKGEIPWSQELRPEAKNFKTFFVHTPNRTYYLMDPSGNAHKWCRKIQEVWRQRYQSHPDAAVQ
From the text: as §1

RPS6KA5 = biological target: T11, RPS6KA5 (Homo sapiens, UniProt O75582)
T11 construct: purchased Luceome Biotechnologies (Tucson, Ariz.)
From the text: as §1

MLK1 = biological target: T12, MLK1 (Homo sapiens, UniProt P80192)
T12 construct: purchased Luceome Biotechnologies (Tucson, Ariz.)
From the text: as §1

CAMK1 = biological target: T13, CAMK1 (Homo sapiens, UniProt Q14012)
T13 construct: purchased Luceome Biotechnologies (Tucson, Ariz.)
From the text: as §1

TNK2 = biological target: T14, TNK2 (Homo sapiens, UniProt Q07912)
T14 construct: purchased Luceome Biotechnologies (Tucson, Ariz.)
T14 sequence (Q07912 whole entry): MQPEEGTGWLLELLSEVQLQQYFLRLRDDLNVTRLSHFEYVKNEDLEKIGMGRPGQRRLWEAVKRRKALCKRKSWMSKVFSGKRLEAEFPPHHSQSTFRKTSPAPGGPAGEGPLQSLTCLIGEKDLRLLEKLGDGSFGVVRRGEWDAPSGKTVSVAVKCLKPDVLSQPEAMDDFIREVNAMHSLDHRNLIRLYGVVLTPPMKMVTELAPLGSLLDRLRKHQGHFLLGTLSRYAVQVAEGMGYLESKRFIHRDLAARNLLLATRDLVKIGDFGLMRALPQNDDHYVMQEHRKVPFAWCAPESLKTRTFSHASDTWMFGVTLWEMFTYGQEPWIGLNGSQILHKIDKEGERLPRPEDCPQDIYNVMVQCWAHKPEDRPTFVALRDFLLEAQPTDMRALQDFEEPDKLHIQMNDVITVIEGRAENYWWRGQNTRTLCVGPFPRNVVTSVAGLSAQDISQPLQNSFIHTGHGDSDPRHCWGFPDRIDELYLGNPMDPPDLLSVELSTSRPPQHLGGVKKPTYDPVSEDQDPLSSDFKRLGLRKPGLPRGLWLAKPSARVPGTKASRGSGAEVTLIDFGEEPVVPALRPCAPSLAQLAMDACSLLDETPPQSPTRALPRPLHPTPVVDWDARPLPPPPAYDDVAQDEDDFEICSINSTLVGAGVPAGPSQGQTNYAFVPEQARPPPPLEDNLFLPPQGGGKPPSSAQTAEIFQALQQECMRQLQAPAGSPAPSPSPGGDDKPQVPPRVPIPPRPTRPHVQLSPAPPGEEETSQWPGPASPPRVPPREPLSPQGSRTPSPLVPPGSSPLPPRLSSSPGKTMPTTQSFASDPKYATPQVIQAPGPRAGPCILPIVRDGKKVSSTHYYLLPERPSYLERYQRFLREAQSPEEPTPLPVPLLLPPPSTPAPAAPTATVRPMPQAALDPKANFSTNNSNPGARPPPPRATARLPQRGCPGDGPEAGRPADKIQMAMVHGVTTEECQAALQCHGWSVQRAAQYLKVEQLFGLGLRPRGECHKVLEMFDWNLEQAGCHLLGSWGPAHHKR
From the text: as §1

CLK2 = biological target: T15, CLK2 (Homo sapiens, UniProt P49760)
T15 construct: purchased Luceome Biotechnologies (Tucson, Ariz.)
T15 sequence (P49760 whole entry): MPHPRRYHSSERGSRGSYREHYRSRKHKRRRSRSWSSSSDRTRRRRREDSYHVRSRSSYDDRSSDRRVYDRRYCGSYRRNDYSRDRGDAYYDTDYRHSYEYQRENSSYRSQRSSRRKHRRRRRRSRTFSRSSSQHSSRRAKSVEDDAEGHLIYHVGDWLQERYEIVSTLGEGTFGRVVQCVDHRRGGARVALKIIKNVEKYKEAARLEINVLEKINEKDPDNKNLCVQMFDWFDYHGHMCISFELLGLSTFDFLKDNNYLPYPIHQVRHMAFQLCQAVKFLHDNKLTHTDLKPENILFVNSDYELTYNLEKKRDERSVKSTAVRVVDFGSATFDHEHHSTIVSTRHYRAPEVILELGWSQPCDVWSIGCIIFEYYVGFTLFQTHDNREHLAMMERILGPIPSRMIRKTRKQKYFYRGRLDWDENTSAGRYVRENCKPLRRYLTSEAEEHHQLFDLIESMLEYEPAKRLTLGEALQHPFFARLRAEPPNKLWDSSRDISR
From the text: as §1

FLT1 = biological target: T16, FLT1 (Homo sapiens, UniProt P17948)
T16 construct: purchased Luceome Biotechnologies (Tucson, Ariz.)
From the text: as §1

RPS6KA4 = biological target: T17, RPS6KA4 (Homo sapiens, UniProt O75676)
T17 construct: purchased Luceome Biotechnologies (Tucson, Ariz.)
T17 sequence (O75676 whole entry): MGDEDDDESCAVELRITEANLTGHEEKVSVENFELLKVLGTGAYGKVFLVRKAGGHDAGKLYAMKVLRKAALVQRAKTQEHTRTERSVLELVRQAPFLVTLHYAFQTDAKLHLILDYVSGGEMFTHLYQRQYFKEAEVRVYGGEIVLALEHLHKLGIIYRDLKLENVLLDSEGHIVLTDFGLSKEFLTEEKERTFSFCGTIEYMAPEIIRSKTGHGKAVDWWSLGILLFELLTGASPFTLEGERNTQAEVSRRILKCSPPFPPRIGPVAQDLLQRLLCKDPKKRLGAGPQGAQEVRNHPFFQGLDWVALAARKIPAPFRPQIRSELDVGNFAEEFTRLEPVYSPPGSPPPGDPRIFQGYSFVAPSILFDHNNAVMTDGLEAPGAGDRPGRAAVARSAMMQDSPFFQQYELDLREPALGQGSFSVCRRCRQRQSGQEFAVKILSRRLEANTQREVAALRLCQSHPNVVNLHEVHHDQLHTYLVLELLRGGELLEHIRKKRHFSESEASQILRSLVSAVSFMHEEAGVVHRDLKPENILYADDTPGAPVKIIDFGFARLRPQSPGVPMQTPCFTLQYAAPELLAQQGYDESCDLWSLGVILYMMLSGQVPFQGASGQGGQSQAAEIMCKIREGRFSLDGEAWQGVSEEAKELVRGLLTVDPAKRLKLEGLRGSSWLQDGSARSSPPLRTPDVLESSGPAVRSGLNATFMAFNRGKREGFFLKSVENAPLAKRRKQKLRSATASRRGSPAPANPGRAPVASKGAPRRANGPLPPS
From the text: as §1

MARK3 = biological target: T18, MARK3 (Homo sapiens, UniProt P27448)
T18 construct: purchased Luceome Biotechnologies (Tucson, Ariz.)
From the text: as §1

MST2 = biological target: T19, MST2 (Homo sapiens, UniProt Q13188)
T19 construct: purchased Luceome Biotechnologies (Tucson, Ariz.)
From the text: as §1

CAMKK1 = biological target: T20, CAMKK1 (Homo sapiens, UniProt Q8N5S9)
T20 construct: purchased Luceome Biotechnologies (Tucson, Ariz.)
From the text: as §1

CAMK2D = biological target: T21, CAMK2D (Homo sapiens, UniProt Q13557)
T21 construct: purchased Luceome Biotechnologies (Tucson, Ariz.)
From the text: as §1

AMPK-α2 = biological target: T22, AMPK-α2 (Homo sapiens, UniProt P54646)
T22 construct: purchased Luceome Biotechnologies (Tucson, Ariz.)
T22 sequence (P54646 whole entry): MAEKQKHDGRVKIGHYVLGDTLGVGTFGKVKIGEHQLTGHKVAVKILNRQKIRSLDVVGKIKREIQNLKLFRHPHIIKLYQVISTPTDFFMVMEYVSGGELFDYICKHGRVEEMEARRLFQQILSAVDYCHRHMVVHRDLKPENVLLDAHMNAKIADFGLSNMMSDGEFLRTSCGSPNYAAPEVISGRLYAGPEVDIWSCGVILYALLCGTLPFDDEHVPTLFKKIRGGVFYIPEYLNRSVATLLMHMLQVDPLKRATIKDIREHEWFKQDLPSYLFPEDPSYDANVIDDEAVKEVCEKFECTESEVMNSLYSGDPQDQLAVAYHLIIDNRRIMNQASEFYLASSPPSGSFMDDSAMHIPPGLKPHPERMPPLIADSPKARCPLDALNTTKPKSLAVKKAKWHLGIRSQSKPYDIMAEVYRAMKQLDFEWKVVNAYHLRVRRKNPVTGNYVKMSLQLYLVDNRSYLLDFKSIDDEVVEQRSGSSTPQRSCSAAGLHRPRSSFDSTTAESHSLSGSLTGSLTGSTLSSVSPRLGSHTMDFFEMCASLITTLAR
From the text: as §1

RPS6KA3 = biological target: T23, RPS6KA3 (Homo sapiens, UniProt P51812)
T23 construct: purchased Luceome Biotechnologies (Tucson, Ariz.)
From the text: as §1

PAK1 = biological target: T24, PAK1 (Homo sapiens, UniProt Q13153)
T24 construct: purchased Luceome Biotechnologies (Tucson, Ariz.)
From the text: as §1

DDR2 = biological target: T25, DDR2 (Homo sapiens, UniProt Q16832)
T25 construct: purchased Luceome Biotechnologies (Tucson, Ariz.)
From the text: as §1

AKT2 = biological target: T26, AKT2 (Homo sapiens, UniProt P31751)
T26 construct: purchased Luceome Biotechnologies (Tucson, Ariz.)
From the text: as §1

CAM1G = biological target: T27, CAM1G (Homo sapiens, UniProt Q96NX5)
T27 construct: purchased Luceome Biotechnologies (Tucson, Ariz.)
T27 sequence (Q96NX5 whole entry): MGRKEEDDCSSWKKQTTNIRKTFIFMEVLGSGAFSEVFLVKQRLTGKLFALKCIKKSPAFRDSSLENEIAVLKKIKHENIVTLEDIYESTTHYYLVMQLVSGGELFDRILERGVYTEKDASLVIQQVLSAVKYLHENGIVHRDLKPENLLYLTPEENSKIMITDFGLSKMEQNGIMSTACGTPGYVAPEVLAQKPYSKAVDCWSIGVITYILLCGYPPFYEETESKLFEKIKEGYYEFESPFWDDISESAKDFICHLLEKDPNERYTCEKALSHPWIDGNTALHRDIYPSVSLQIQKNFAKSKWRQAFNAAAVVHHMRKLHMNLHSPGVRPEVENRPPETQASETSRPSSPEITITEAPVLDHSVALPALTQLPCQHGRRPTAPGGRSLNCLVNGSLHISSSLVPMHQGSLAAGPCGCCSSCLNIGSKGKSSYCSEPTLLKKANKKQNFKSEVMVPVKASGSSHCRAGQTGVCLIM
From the text: as §1

VEGFR2 = biological target: T28, VEGFR2 (Homo sapiens, UniProt P35968)
T28 construct: purchased Luceome Biotechnologies (Tucson, Ariz.)
From the text: as §1

SRC = biological target: T29, SRC (Homo sapiens, UniProt P12931)
T29 construct: purchased Luceome Biotechnologies (Tucson, Ariz.)
From the text: as §1

PKC-η = biological target: T30, PKC-η (Homo sapiens, UniProt P24723)
T30 construct: purchased Luceome Biotechnologies (Tucson, Ariz.)
From the text: as §1

AKT3 = biological target: T31, AKT3 (Homo sapiens, UniProt Q9Y243)
T31 construct: purchased Luceome Biotechnologies (Tucson, Ariz.)
T31 sequence (Q9Y243 whole entry): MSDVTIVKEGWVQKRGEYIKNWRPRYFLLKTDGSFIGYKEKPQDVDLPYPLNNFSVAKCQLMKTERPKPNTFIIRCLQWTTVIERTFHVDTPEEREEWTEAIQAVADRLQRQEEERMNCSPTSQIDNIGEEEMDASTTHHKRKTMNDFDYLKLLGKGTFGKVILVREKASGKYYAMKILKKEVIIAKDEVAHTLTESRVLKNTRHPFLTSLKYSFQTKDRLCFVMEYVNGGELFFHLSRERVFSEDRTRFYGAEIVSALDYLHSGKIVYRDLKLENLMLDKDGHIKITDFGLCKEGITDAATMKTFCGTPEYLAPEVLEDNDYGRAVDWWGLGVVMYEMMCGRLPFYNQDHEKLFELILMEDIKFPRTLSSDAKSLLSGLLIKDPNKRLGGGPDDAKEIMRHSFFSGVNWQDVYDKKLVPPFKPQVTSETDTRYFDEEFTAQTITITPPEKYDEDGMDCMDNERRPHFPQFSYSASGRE
From the text: as §1

PKD2 = biological target: T32, PKD2 (Homo sapiens, UniProt Q9BZL6)
T32 construct: purchased Luceome Biotechnologies (Tucson, Ariz.)
From the text: as §1

PRS6KA1 = biological target: T33, PRS6KA1 (Homo sapiens, UniProt Q15418)
T33 construct: purchased Luceome Biotechnologies (Tucson, Ariz.)
From the text: as §1

YES1 = biological target: T34, YES1 (Homo sapiens, UniProt P07947)
T34 construct: purchased Luceome Biotechnologies (Tucson, Ariz.)
From the text: as §1

AURKB = biological target: T35, AURKB (Homo sapiens, UniProt Q96GD4)
T35 construct: purchased Luceome Biotechnologies (Tucson, Ariz.)
From the text: as §1

PKAC-α = biological target: T36, PKAC-α (Homo sapiens, UniProt P17612)
T36 construct: purchased Luceome Biotechnologies (Tucson, Ariz.)
From the text: as §1

CAMKD2B = biological target: T37, CAMKD2B (Homo sapiens, UniProt Q13554)
T37 construct: purchased Luceome Biotechnologies (Tucson, Ariz.)
From the text: as §1

PIM2 = biological target: T38, PIM2 (Homo sapiens, UniProt Q9P1W9)
T38 construct: purchased Luceome Biotechnologies (Tucson, Ariz.)
From the text: as §1

YSK1 = biological target: T39, YSK1 (Homo sapiens, UniProt O00506)
T39 construct: purchased Luceome Biotechnologies (Tucson, Ariz.)
From the text: as §1

Structure (SMILES)	% Inhibition PKC-ε (PKC-ε) [%]	% Inhibition CAMKK2 (CAMKK2) [%]	% Inhibition MET (MET) [%]	% Inhibition MLK3 (MLK3) [%]	% Inhibition SNF1LK2 (SNF1LK2) [%]	% Inhibition CAMK1D (CAMK1D) [%]	% Inhibition CLK1 (CLK1) [%]	% Inhibition AKT1 (AKT1) [%]	% Inhibition AURKA (AURKA) [%]	% Inhibition PDK1 (PDK1) [%]	% Inhibition RPS6KA5 (RPS6KA5) [%]	% Inhibition MLK1 (MLK1) [%]	% Inhibition CAMK1 (CAMK1) [%]	% Inhibition TNK2 (TNK2) [%]	% Inhibition CLK2 (CLK2) [%]	% Inhibition FLT1 (FLT1) [%]	% Inhibition RPS6KA4 (RPS6KA4) [%]	% Inhibition MARK3 (MARK3) [%]	% Inhibition MST2 (MST2) [%]	% Inhibition CAMKK1 (CAMKK1) [%]	also measured
CC(C)(C)OC(=O)n1ccc2c[c]([Au-][P+](c3ccccc3)(c3ccccc3)c3ccccc3)ccc21 [Compound 3, 5-{Triphenylphosphine aurate(I)}-tert-butyl1H-indole-1-carboxylate]	0	0	15.1	31.2	0	0	0	0	26.7	17.4	0	32.5	0	0	0	18.9	1.0	6.5	0	0	% Inhibition CAMK2D (CAMK2D): 0%; % Inhibition AMPK-α2 (AMPK-α2): 0%; % Inhibition RPS6KA3 (RPS6KA3): 16.7%; % Inhibition PAK1 (PAK1): 0%; % Inhibition DDR2 (DDR2): 0%; % Inhibition AKT2 (AKT2): 25.8%; % Inhibition CAM1G (CAM1G): 0%; % Inhibition VEGFR2 (VEGFR2): 0%; % Inhibition SRC (SRC): 14.3%; % Inhibition PKC-η (PKC-η): 3.2%; % Inhibition AKT3 (AKT3): 0%; % Inhibition PKD2 (PKD2): 0%; % Inhibition PRS6KA1 (PRS6KA1): 0%; % Inhibition YES1 (YES1): 0%; % Inhibition AURKB (AURKB): 11.1%; % Inhibition PKAC-α (PKAC-α): 0%; % Inhibition CAMKD2B (CAMKD2B): 0%; % Inhibition PIM2 (PIM2): 0%; % Inhibition YSK1 (YSK1): 0%
CC(C)(C)OC(=O)n1ccc2c[c]([Au-][P+](C3CCCCC3)(C3CCCCC3)C3CCCCC3)ccc21 [Compound 4, 5-{Tricyclohexylphosphine aurate(I)}-tert-butyl1H-indole-1-carboxylate]	5.9	7.9	23.3	43	32.9	0	0	0	41.7	24.3	5.0	42.2	0	2.2	0	9.4	21.8	34	0	0	% Inhibition CAMK2D (CAMK2D): 0%; % Inhibition AMPK-α2 (AMPK-α2): 0%; % Inhibition RPS6KA3 (RPS6KA3): 34.9%; % Inhibition PAK1 (PAK1): 0%; % Inhibition DDR2 (DDR2): 0%; % Inhibition AKT2 (AKT2): 33.6%; % Inhibition CAM1G (CAM1G): 0%; % Inhibition VEGFR2 (VEGFR2): 5.8%; % Inhibition SRC (SRC): 5.2%; % Inhibition PKC-η (PKC-η): 0%; % Inhibition AKT3 (AKT3): 0%; % Inhibition PKD2 (PKD2): 3.8%; % Inhibition PRS6KA1 (PRS6KA1): 0%; % Inhibition YES1 (YES1): 31.7%; % Inhibition AURKB (AURKB): 24.5%; % Inhibition PKAC-α (PKAC-α): 12.4%; % Inhibition CAMKD2B (CAMKD2B): 0%; % Inhibition PIM2 (PIM2): 8.7%; % Inhibition YSK1 (YSK1): 20.9%
